Results from patent US20260374773A1, “MULTI-CYCLIC IRAK AND FLT3 INHIBITING COMPOUNDS AND USES THEREOF” (CHILDREN'S HOSPITAL MEDICAL CENTER, priority 2022, published 2026).

How the values were obtained:
IRAK4 = target: T1, IRAK4 (Homo sapiens, UniProt Q9NWZ3); experiment: NanoBRET target engagement assay in HEK-293 cells, IRAK4; assay type: cell-based; conditions: live HEK-293 cells, 1 h
T1 sequence (Q9NWZ3 1-460): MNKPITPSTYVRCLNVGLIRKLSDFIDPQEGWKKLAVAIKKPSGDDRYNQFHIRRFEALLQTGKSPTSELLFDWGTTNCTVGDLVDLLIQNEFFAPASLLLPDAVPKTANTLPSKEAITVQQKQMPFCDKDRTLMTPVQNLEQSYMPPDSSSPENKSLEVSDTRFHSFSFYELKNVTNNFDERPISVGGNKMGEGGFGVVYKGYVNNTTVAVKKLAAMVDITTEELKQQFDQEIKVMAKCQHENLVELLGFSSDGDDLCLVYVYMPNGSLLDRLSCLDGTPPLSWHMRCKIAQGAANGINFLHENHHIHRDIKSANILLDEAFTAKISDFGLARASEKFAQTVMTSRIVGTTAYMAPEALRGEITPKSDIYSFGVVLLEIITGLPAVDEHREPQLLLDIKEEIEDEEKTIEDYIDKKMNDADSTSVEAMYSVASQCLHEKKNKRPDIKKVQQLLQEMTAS
From the text: The NanoBRET assay measures kinase engagement in real time in the context of the intact cell. Unlike the previously described biochemical kinase assay methodology, the NanoBRET assay measures the binding and activity characteristics under equilibrium conditions using full-length kinases in the presence of cellular concentrations of ATP in live, uncompromised cells. As such, the assay provides a more relevant assessment of kinase potency and selectivity that would be expected to be observed in the native cellular environment, where potency is often considerably lower than that observed in the isolated biochemical assays (Vasta, J. D. et al., (2018) Cell Chem. Biol. 25, 206-214). The assay uses a Kinase-NanoLuc® fusion vector expressing a kinase protein to which a luciferase tag has been added, a cell-permeant fluorescent NanoBRET™ tracer, a NanoLuc® substrate, and an extracellular NanoLuc® inhibitor. Upon expression of the luciferase-tagged kinase, cells will produce a strong BRET signal only in the presence of the NanoBRET™ tracer. The extracellular NanoLuc® inhibitor ensures that the BRET signal observed emanates only from live cells. Because the BRET signal has tight distance constraints, addition of the test compound will decrease the BRET signal if the compound competes with the NanoBRET™ tracer for binding to the kinase domain. Under the appropriate tracer conditions established by the manufacturer, quantitative intracellular affinity and relative potency can then be determined using Mass Action model equations.
HEK-293 cells were purchased from ATCC. FuGENEHD Transfection Reagent, Kinase-NanoLucfusion plasmids, Transfection Carrier DNA, NanoBRETTracers and dilution buffer, NanoBRETNano-Glo Substrate, Extracellular NanoLucInhibitor were obtained from Promega.
Assays were conducted following Promega assay protocol with some modifications. HEK-293 Cells were transiently transfected with Kinase-NanoLucFusion Vector DNA by FuGENEHD Transfection Reagent. Testing compounds were delivered into 384 well assay plate by Echo 550 (LabcyteInc, Sunnyvale, CA). Transfected cells were harvested and mixed with NanoBRETTracer Reagent and dispensed into 384 well plates and incubated at 37 °C in 5% CO2 cell culture incubator for 1 hour. The NanoBRETNano-Glo Substrate plus Extracellular NanoLucInhibitor Solution were added into the wells of the assay plate and incubated for 2-3 minutes at room temperature. The donor emission wavelength (460 nm) and acceptor emission wavelength (600 nm) were measured in the En Visionplate reader. The BRET Ratios were calculated.
BRET Ratio=[(Acceptor sample÷Donor sample)−(Acceptor no-tracer control÷Donor no-tracer control)].
The IC50 values of compounds were calculated with Prism GraphPad program.
• 1). Cultivate HEK-293 cells (70-80% confluence) appropriately prior to assay. Trypsinize and collect HEK-293 cells. • 2). Prepare lipid:DNA complexes as follows: • a. Prepare a 10 μg/ml solution of DNA in Opti-MEM without serum that consists of the following ratios of carrier DNA and DNA encoding NanoLuc® fusion. 9.0 μg/mL of Transfection Carrier DNA, 1.0 μg/mL of NanoLuc fusion vector DNA and 1 mL of Opti-MEM without phenol red. Mix thoroughly. • b. Add 30 μl of FuGENE HD Transfection Reagent into each milliliter of DNA mixture to form lipid:DNA complex. • c. Mix by inversion 10 times. • d. Incubate at ambient temperature for 20 minutes to allow complexes to form. • 3). In a sterile, conical tube, mix 1 part of lipid:DNA complex with 20 parts of HEK-293 cells in suspension. Mix gently by inversion 5 times. • 4). Dispense cells+lipid:DNA complex into a sterile tissue culture dish and incubate for 22-24 hours.
Each test compound is delivered from the compound source plate to the wells of 384-well white NBS plate by Echo 550.
3. Preparation of Cells with NanoBRET™ Tracer Reagent • 1). Remove medium from dish with transfected HEK-293 cells via aspiration, trypsinize and allow cells to dissociate from the dish. • 2). […]

MOLM14 F691L cells = experiment: MOLM14 F691L cell viability (Cell Titer Glo); assay type: cell-based; conditions: Homo sapiens
Description: Both cell lines have activated FLT3 receptors, each of which carry additional resistance mutations in the kinase domain (D835Y and F691L, respectively).
MOLM14 D835Y and MOLM14 F691L cells were grown in RPMI-1640 media supplemented with 20% fetal bovine serum (FBS). For viability/cytotoxicity assessments, cells were seeded into 1536-well white polystyrene tissue culture-treated Greiner plates using a Multidrop Combi dispenser (ThermoFisher), in final volume 5 μL of growth media per well, at a density of 1000 cells per well. After cell addition, 23 nL of test compound were transferred into individual wells (22 doses tested for each test compound, with a 1:2 dilution series starting at 10 μM) via a 1536 pin-tool. Bortezomib (final concentration 2.3 μM) was used as a positive control for cell cytotoxicity. Plates were incubated for 48 hours at standard incubator conditions covered by a stainless steel gasketed lid to prevent evaporation. 48 hours post compound addition, 3 μL of Cell Titer Glo (Promega) were added to each well and plates were incubated at room temperature for 15 minutes with the stainless-steel lid in place. Luminescence readings were taken using a Viewlux imager (PerkinElmer) with a 2 second exposure time per plate.

IC50 (IRAK4; Table 14) [µM]	IC50 (MOLM14 F691L cells; MOLM-14, Table 16, 48 h) [µM]	IC50 (IRAK4; Table 20) [µM]	IC50 (MOLM14 F691L cells; MOLM-14, Table 22, 48 h) [µM]	SMILES
< 0.0005	0.071			COc1cn2ncc(-c3ccc(F)c(N[C@H]4CNCC[C@@H]4F)n3)c2nc1C1CC1 [Compound 6, 6-(5-cyclopropyl-6-methoxypyrazolo[1,5-a]pyrimidin-3-yl)-3-fluoro-N-((3S,4S)-4-fluoropiperidin-3-yl)pyridin-2-amine]
		0.002	0.225	COc1cn2ncc(-c3nc(N[C@H]4CNC[C@@H]4F)ncc3F)c2nc1C(C)(C)O [Compound 5a, 2-(3-(5-fluoro-2-(((3S,4S)-4-fluoropyrrolidin-3-yl)amino)pyrimidin-4-yl)-6-methoxypyrazolo[1,5-a]pyrimidin-5-yl)propan-2-ol]
